Measured values taken from patent US20210198269A1, “INHIBITORS OF GLUCOSE TRANSPORTERS (GLUTs)” (LEAD DISCOVERY CENTER GMBH, priority 2018, published 2021).

How the values were obtained:
Format in all cases: cell-based
GLUT3 = target: T1, GLUT3 (Homo sapiens, UniProt P11169); test: GLUT3 transporter activity assay (2-DG uptake) in DLD-1-GLUT1-/- cells; conditions: DLD-1-GLUT1-/- cell line; read-out: GLUT3 inhibitory activity (IC50)
T1 construct: host or cells: DLD-1-GLUT1(-/-) cells
T1 sequence (P11169 1-496): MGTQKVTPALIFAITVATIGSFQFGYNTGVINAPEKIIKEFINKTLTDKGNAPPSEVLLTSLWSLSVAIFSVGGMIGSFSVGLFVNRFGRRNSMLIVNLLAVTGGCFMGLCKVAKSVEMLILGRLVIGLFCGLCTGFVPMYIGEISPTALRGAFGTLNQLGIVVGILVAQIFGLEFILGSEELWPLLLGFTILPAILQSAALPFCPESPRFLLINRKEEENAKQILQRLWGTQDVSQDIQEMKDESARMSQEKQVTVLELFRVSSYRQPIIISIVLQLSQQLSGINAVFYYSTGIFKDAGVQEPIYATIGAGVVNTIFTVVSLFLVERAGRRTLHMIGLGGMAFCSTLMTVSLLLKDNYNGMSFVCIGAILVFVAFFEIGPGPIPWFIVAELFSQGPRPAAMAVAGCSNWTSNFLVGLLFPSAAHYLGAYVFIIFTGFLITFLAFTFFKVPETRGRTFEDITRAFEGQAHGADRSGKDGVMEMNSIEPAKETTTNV
Excerpt: (§1) GLUT 1, 2, 3 and 4 Transporter Activity Assays
(§2) Assays were based on the specificity assays reported by Kapoor et al., Proceedings of the National Academy of Sciences 2016, 113 (17) 4711-4716. For GLUT1, GLUT2, GLUT3 and GLUT4 specificity testing DLD1, CHO-hGLUT2, DLD-1-GLUT1−/− and CHO-hGLUT4 cell lines were used.
(§3) Assay protocols for 2-deoxy-Glucose (2-DG) Uptake Assay with DLD1 or DLD1-Glut1(−/−) cells or 7,000 CHOK1-SLC2A4 cells lines:
(§4) 14,000 DLD1 or DLD1-Glut1(−/−) cells or 7,000 CHOK1-SLC2A4 cells were seeded in black, clear bottom 384-well plates in glucose- and phenolred-free RPMI1640 medium supplemented with 1% FCS and 2 mM L-glutamine and allowed to attach overnight. Next day, cells were washed and incubated with compounds or DMSO and 1 mM 2-DG in glucose- and phenolred-free RPMI1640 medium for 30 min. Cells were then washed and lysed in 0.06 M HCl and 1% CHAPS for 15 min at 65° C. The amount of 2-DG in the lysate was determined by means of enzyme-coupled assay. For this 16 U/mL glucose-6-phosphate dehydrogenase, 0.2 U/mL diaphorase, 0.1 mM NADP^+ and 10 μM resazurin were added to the lysates. Resorufin fluorescence was determined as a measure of 2-DG uptake at ex/em 535/590 nm with a Victor Multilabel plate reader (Perkin Elmer). Blank values were subtracted from all readings and values were normalized to the DMSO control.

GLUT2 = target: T2, GLUT2 (Homo sapiens, UniProt P11168); test: GLUT2 transporter activity assay in CHO-hGLUT2 cells (indirect, intracellular ATP levels); conditions: CHO-hGLUT2 cell line; read-out: GLUT2 inhibitory activity (IC50)
T2 sequence (P11168 1-524): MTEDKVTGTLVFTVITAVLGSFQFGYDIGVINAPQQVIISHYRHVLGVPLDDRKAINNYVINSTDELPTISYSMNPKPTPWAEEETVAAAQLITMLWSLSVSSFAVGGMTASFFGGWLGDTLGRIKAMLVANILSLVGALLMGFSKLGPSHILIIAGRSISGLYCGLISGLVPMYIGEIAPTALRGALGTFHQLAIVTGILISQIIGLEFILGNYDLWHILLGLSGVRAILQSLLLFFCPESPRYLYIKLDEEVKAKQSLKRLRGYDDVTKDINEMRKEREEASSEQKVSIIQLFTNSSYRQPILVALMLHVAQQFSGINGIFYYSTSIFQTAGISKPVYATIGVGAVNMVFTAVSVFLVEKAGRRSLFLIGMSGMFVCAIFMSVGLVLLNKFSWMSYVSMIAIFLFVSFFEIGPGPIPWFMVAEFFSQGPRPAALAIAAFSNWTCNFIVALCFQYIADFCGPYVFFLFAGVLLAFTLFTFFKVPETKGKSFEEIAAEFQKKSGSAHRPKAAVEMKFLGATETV
Excerpt: as §1, §2
Example 8-3: Indirect Measurement of GLUT2 (SLC2A2) Activity by Quantification of Intracellular ATP Levels
A combination of small-molecule inhibitors of mitochondrial electron transport chain and glucose catabolism synergistically suppress ATP production and impair cellular viability (Ulanovskaya et al., 2008, 2011; Liu, et al. 2001). We therefore used CHOK1 cells overexpressing SLC2A2 (CHOK1-SLC2A2) in combination with an oxidative phosphorylation inhibitor (Rotenon) to identify GLUT2 inhibitors. CHOK1-SLC2A2 cells were purchased from creative biogene (catNo: CSC-SC014484) and maintained in RPMI1640 supplemented with 10% FBS and 2 mM L-Glutamine. For the Glut2-ATP-Assay, 7,500 cells were seeded in black, clear bottom 384-well plates directly in glucose- and phenolred-free RPMI1640 medium supplemented with 1% FCS and 2 mM L-glutamine and cultured overnight to reduce intracellular ATP levels. Next day, cells were washed and incubated with […] and compounds or DMSO and 2.5 mM fructose in glucose- and phenolred-free RPMI1640 medium for 40 min. The CellTiter-Glo® Luminescence Viability Assay from Promega was used to measure ATP levels. Luminescence was measured with a Victor Multilabel plate reader (Perkin Elmer). Blank values were subtracted from all readings and values were normalized to the DMSO control.

GLUT4 = target: T3, GLUT4 (Homo sapiens, UniProt P14672); test: GLUT4 transporter activity assay (2-DG uptake) in CHO-hGLUT4 cells; conditions: CHO-hGLUT4 cell line; read-out: GLUT4 inhibitory activity (IC50)
T3 sequence (P14672 1-509): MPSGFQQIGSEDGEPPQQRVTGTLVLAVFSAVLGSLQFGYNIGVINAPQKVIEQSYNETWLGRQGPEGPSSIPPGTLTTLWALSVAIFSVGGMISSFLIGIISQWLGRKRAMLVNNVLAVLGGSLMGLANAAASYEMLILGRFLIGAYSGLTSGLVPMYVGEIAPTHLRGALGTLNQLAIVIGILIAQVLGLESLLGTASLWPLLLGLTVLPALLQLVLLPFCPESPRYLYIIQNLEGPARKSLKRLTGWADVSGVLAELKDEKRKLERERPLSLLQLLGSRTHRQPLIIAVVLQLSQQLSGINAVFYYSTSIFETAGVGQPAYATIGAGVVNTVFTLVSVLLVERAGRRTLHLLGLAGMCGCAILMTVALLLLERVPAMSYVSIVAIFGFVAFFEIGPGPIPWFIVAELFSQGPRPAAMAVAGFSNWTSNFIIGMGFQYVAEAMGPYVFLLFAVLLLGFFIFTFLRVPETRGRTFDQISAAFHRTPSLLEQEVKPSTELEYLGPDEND
Experimental: CHOK1-SLC2A4 cells were generated by transfection of CHOK1 cells with pCMV6-Entry-GLUT4 (Origene #SC125240) using Lipofectamin2000 according to the supplier's instructions. Briefly, 1.5E5 cells/well CHOK1 cells were seeded in 6-well cell culture plates. After overnight incubation, DNA-lipid complexes (2 μg plasmid DNA, DNA:lipid ratio 1:10) were prepared in OptiMEM and then added to the cells. After 5 days incubation, 800 μg G418 was added to the culture medium to generate a stable polyclone. For monoclone selection, single cells were re-plated in 96-well plates, expanded and selected by transgene overexpression and functional performance.
as §1, §2, §3, §4

GLUT1 = target: T4, GLUT1 (Homo sapiens, UniProt P11166); test: GLUT1 transporter activity assay (2-DG uptake) in DLD1 cells; conditions: DLD1 cell line; read-out: GLUT1 inhibitory activity (IC50)
T4 construct: host or cells: DLD-1 (DLD1) cells
T4 sequence (P11166 1-492): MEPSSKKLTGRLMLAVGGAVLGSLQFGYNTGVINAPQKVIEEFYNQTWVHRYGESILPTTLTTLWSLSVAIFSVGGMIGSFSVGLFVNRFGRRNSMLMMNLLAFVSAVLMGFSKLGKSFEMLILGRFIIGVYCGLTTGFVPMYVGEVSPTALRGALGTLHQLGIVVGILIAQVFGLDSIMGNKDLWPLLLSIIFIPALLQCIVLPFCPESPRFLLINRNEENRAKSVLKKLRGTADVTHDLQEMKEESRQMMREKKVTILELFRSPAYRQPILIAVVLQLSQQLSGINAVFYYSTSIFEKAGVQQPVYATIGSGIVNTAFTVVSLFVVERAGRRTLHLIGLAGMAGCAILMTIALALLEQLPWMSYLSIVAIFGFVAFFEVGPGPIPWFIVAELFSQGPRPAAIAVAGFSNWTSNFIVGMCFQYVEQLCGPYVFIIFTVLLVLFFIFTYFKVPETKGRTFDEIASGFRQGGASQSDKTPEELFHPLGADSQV
Excerpt: as §1, §2, §3, §4

Structure (SMILES)	IC50 (GLUT3) [µM]	IC50 (GLUT2) [µM]	IC50 (GLUT4) [µM]	IC50 (GLUT1) [µM]
Cc1ccc(OCCNC(=O)c2cccc(N3C(=O)NC4CC3(C)Oc3c(OCc5ccccc5)cccc34)c2)cc1 (stereo not shown) [Compound A35, 3-(10-(benzyloxy)-2-methyl-4-oxo-5,6-dihydro-2H-2,6-methanobenzo[g][1,3,5]oxadiazocin-3(4H)-yl)-N-(2-(4-methylphenoxy)ethyl)benzamide]	0.3 to 1	> 25	10 to 25	0.3 to 1
Cc1ccc(CCNC(=O)c2cccc(N3C(=O)NC4CC3(C)Oc3c(OCc5nccn5C)cccc34)c2)cc1 (stereo not shown) [Compound A16, 3-(2-Methyl-10-((1-methyl-1H-imidazol-2-yl)methoxy)-4-oxo-5,6-dihydro-2H-2,6-methanobenzo[g][1,3,5]oxadiazocin-3(4H)-yl)-N-(4-methylphenethyl)benzamide]		> 25	> 25	1 to 4
CC12CC(NC(=O)N1c1cccc(C(=O)NCCc3ccccc3)c1)c1cccc(OCc3ccccc3)c1O2 (stereo not shown) [Compound A36, 3-(10-(benzyloxy)-2-methyl-4-oxo-5,6-dihydro-2H-2,6-methanobenzo[g][1,3,5]oxadiazocin-3(4H)-yl)-N-(phenethyl)benzamide]	0.3 to 1	> 25	4 to 10	0.3 to 1
CC12CC(NC(=O)N1c1cccc(C(=O)NCCOc3ccccc3)c1)c1cccc(OCc3ccccc3)c1O2 (stereo not shown) [Compound A21, 3-(10-(benzyloxy)-2-methyl-4-oxo-5,6-dihydro-2H-2,6-methanobenzo[g][1,3,5]oxadiazocin-3(4H)-yl)-N-(2-phenoxyethyl)benzamide]	1 to 4	> 25	10 to 25	1 to 4
Cc1ccc(CCNC(=O)c2cccc(N3C(=O)NC4CC3(C)Oc3c(OCc5ccccc5)cccc34)c2)cc1 (stereo not shown) [Compound A01, 3-(10-(Benzyloxy)-2-methyl-4-oxo-5,6-dihydro-2H-2,6-methanobenzo[g][1,3,5]oxadiazocin-3(4H)-yl)-N-(4-methylphenethyl)benzamide]	≤ 0.3	10 to 25	10 to 25	≤ 0.3
Cc1ccc(CCNC(=O)c2cccc(N3C(=O)NC4CC3(C)Oc3c(OCc5cncnc5)cccc34)c2)cc1 (stereo not shown) [Compound A13, 3-(2-Methyl-4-oxo-10-(pyrimidin-5-ylmethoxy)-5,6-dihydro-2H-2,6-methanobenzo[g][1,3,5]oxadiazocin-3(4H)-yl)-N-(4-methylphenethyl)benzamide]	0.3 to 1		> 25	0.3 to 1

Results, then the compound that gave them:

IC50 (GLUT3) [µM]	IC50 (GLUT2) [µM]	IC50 (GLUT4) [µM]	IC50 (GLUT1) [µM]	Structure (SMILES)
0.3 to 1	> 25	4 to 10	0.3 to 1	Cc1ccc(CCN(C)C(=O)c2cccc(N3C(=O)NC4CC3(C)Oc3c(OCc5ccccc5)cccc34)c2)cc1 (stereo not shown) [Compound A23, 3-(10-(benzyloxy)-2-methyl-4-oxo-5,6-dihydro-2H-2,6-methanobenzo[g][1,3,5]oxadiazocin-3(4H)-yl)-N-methyl-N-(4-methylphenethyl)benzamide]
0.3 to 1	> 25	1 to 4	0.3 to 1	CC12CC(NC(=O)N1c1cccc(C(=O)NCCCc3ccccc3)c1)c1cccc(OCc3ccccc3)c1O2 (stereo not shown) [Compound A33, 3-(10-(benzyloxy)-2-methyl-4-oxo-5,6-dihydro-2H-2,6-methanobenzo[g][1,3,5]oxadiazocin-3(4H)-yl)-N-(3-phenylpropyl)benzamide]
0.3 to 1	4 to 10	4 to 10	≤ 0.3	Cc1ccc(CCNC(=O)c2cccc(N3C(=O)NC4CC3(C)Oc3c(OCc5cccnc5)cccc34)c2)cc1 (stereo not shown) [Compound A10, 3-(2-Methyl-4-oxo-10-(pyridin-3-ylmethoxy)-5,6-dihydro-2H-2,6-methanobenzo[g][1,3,5]oxadiazocin-3(4H)-yl)-N-(4-methylphenethyl)benzamide]
